# Laboratory results as given in patent US20230086702A1, “SUBSTITUTED 2-AMINO-PYRAZOLYL-[1,2,4]TRIAZOLO[1,5A]PYRIDINE DERIVATIVES AND USE THEREOF” (The Johns Hopkins University, priority 2019, published 2023).
# How the values were obtained:
# [1] = target: T1, DLK (Homo sapiens, UniProt Q12852); assay: DLK biochemical assay (TR-FRET, MKK7 phosphorylation)
# T1 construct: 10 nM DLK, catalytic domain, Carna Biosiences; purchased Carna Biosciences ('Carna Biosiences' [sic])
# T1 sequence (Q12852 125-366 limits assumed): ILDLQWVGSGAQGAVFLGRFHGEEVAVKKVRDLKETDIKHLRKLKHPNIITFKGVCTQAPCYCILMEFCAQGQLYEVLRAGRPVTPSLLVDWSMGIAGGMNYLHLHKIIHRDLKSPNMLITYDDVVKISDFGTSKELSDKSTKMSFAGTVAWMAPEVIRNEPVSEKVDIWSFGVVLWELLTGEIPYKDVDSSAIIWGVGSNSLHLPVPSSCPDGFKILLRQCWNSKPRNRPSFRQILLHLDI
# Procedure, shortened: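 TR-FRET read-out (665/Eu ratio) of MKK7 T275/S277 phosphorylation, with inhibition lowering the signal. Final conditions: 10 nM DLK catalytic domain, 15 nM MKK7, 60 μM ATP, 90 min at RT. Detection incubation 16 h at 37° C in 1536-well or 4° C in 384-well format.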
# [2] = target: T2, LZK (Homo sapiens, UniProt O43283); assay: LZK biochemical assay (TR-FRET, MKK7 phosphorylation)
# T2 construct: 10 nM LZK, catalytic domain, Carna Biosiences in assay buffer; purchased Carna Biosciences ('Carna Biosiences' [sic])
# T2 sequence (O43283 168-409 limits assumed): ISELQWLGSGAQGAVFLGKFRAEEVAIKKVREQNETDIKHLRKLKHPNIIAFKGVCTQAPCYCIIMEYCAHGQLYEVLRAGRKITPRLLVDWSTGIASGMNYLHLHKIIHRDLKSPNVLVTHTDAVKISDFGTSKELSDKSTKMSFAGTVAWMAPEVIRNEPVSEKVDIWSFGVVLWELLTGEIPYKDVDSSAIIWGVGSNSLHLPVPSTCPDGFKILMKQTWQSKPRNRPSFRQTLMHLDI
# Procedure, shortened: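 Read-out is HTRF: Eu-labelled anti-phospho-MKK7 (T275/S277) and XL665 anti-His, incubated 16 h at 32 °C, with a drop in signal marking inhibition. Reaction beforehand: 10 nM LZK kinase domain, 15 nM His-MKK7, 15 µM ATP (final) for 90 min at room temperature, pH 7.5.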
smiles,measurement,setting,value
CC(C)C(c1ccc(C(F)(F)F)nc1)n1cc(-c2cc(-c3cnn(C4CCCC4)c3)n3nc(N)nc3c2)cn1 (stereo not shown) [II-143],IC50,[1],2.5 nM
same,IC50,[2],15 nM
"Nc1nc2cc(-c3cnn(C(c4ccc(C(F)(F)F)nc4)C4CCOCC4)c3)cc(-c3cn(CC(F)(F)F)c(=O)cn3)n2n1 (single isomer, unassigned) [II-196, 5-[2-Amino-7-(1-{tetrahydro-2H-pyran-4-yl[6-(trifluoromethyl)pyridin-3-yl]methyl}-1H-pyrazol-4-yl)[1,2,4]triazolo[1,5-a]pyridin-5-yl]-1-(2,2,2-trifluoroethyl)pyrazin-2(1H)-one]",IC50,[1],16 nM
same,IC50,[2],50 nM
"CC(C)C(c1ccc(C(F)(F)F)nc1)n1cc(-c2cc(-c3ccc(C4CC4)nc3)c3nc(N)nn3c2)cn1 (single isomer, unassigned) [II-44]",IC50,[1],60 nM
same,IC50,[2],100 nM
"CCC(c1ccc(OC(F)(F)F)nc1)n1cc(-c2cc(-c3cnn(CC(F)(F)F)c3)n3nc(N)nc3c2)cn1 (racemic) [II-114, 5-[1-(2,2,2-Trifluoroethyl)-1H-pyrazol-4-yl]-7-(1-{1-[6-(trifluoromethoxy)pyridin-3-yl]propyl}-1H-pyrazol-4-yl)[1,2,4]triazolo[1,5-a]pyridin-2-amine]",IC50,[1],46 nM
same,IC50,[2],42 nM
"CC[C@@H](c1ccccc1)n1cc(-c2cc(-c3ccc(=O)[nH]c3)n3nc(N)nc3c2)cn1 [II-178, 5-(2-Amino-7-{1-[(1S)-1-phenylpropyl]-1H-pyrazol-4-yl}[1,2,4]triazolo[1,5-a]pyridin-5-yl)pyridin-2(1H)-one]",IC50,[1],15 nM
same,IC50,[2],74 nM
"CCC(c1ccc(C(F)(F)F)nc1)n1cc(-c2cc(-c3cccc(C(C)(C)O)c3)c3nc(N)nn3c2)cn1 (single isomer, unassigned) [II-9, 2-{3-[2-Amino-6-(1-{1-[6-(trifluoromethyl)pyridin-3-yl]propyl}-1H-pyrazol-4-yl)[1,2,4]triazolo[1,5-a]pyridin-8-yl]phenyl}propan-2-ol]",IC50,[1],1 nM
same,IC50,[2],2.3 nM
"Nc1nc2c(-c3cc(CO)ccc3Cl)cc(-c3cnn(C(c4ccc(C(F)(F)F)nc4)C4CCOCC4)c3)cn2n1 (racemic) [II-4, {3-[2-Amino-6-(1-{tetrahydro-2H-pyran-4-yl[6-(trifluoromethyl)pyridin-3-yl]methyl}-1H-pyrazol-4-yl)[1,2,4]triazolo[1,5-a]pyridin-8-yl]-4-chlorophenyl}methanol]",IC50,[1],7 nM
same,IC50,[2],5.9 nM
"C[C@@H](CO)c1nnc(-c2cc(-c3cnn(Cc4cccc5cn[nH]c45)c3)cn3nc(N)nc23)s1 [II-199, (2S)-2-(5-{2-Amino-6-[1-(1H-indazol-7-ylmethyl)-1H-pyrazol-4-yl][1,2,4]triazolo[1,5-a]pyridin-8-yl}-1,3,4-thiadiazol-2-yl)propan-1-ol]",IC50,[1],12 nM
same,IC50,[2],410 nM
"Nc1nc2c(-c3ccn(CC(F)(F)F)c(=O)c3)cc(-c3cnn(C(c4ccc(C(F)(F)F)nc4)C4CCOCC4)c3)cn2n1 (single isomer, unassigned) [II-176, 4-[2-Amino-6-(1-{tetrahydro-2H-pyran-4-yl[6-(trifluoromethyl)pyridin-3-yl]methyl}-1H-pyrazol-4-yl)[1,2,4]triazolo[1,5-a]pyridin-8-yl]-1-(2,2,2-trifluoroethyl)pyridin-2(1H)-one]",IC50,[1],1.6 nM
same,IC50,[2],5.6 nM
"CCC(c1ccc(C(F)(F)F)cc1)n1cc(-c2cc(-c3cnn(C)c3)c3nc(N)nn3c2)cn1 (single isomer, unassigned) [II-100, 8-(1-Methyl-1H-pyrazol-4-yl)-6-(1-{1-[4-(trifluoromethyl)phenyl]propyl}-1H-pyrazol-4-yl)[1,2,4]triazolo[1,5-a]pyridin-2-amine]",IC50,[1],58 nM
same,IC50,[2],500 nM
"CC(C)C(c1ccc(C(F)F)nc1)n1cc(-c2cc(-c3ccc(OC(F)F)nc3)n3nc(N)nc3c2)cn1 (single isomer, unassigned) [II-51, 5-[6-(Difluoromethoxy)pyridin-3-yl]-7-(1-{1-[6-(difluoromethyl)pyridin-3-yl]-2-methylpropyl}-1H-pyrazol-4-yl)[1,2,4]triazolo[1,5-a]pyridin-2-amine]",IC50,[1],13 nM
same,IC50,[2],25 nM
"CCC(c1ccc(C(F)F)nc1)n1cc(-c2cc(-c3cnn(CC(F)(F)F)c3)c3nc(N)nn3c2)cn1 (single isomer, unassigned) [II-107, 6-(1-{1-[6-(Difluoromethyl)pyridin-3-yl]propyl}-1H-pyrazol-4-yl)-8-[1-(2,2,2-trifluoroethyl)-1H-pyrazol-4-yl][1,2,4]triazolo[1,5-a]pyridin-2-amine]",IC50,[1],4 nM
same,IC50,[2],10 nM
"CCC(c1ccc(C(F)(F)F)nc1)n1cc(-c2cc(-c3ccnc(OC(F)F)c3)c3nc(N)nn3c2)cn1 (single isomer, unassigned) [II-27, 8-[2-(Difluoromethoxy)pyridin-4-yl]-6-(1-{1-[6-(trifluoromethyl)pyridin-3-yl]propyl}-1H-pyrazol-4-yl)[1,2,4]triazolo[1,5-a]pyridin-2-amine]",IC50,[1],30 nM
same,IC50,[2],55 nM
"Nc1nc2cc(-c3cnn(C4CCN(C5COC5)CC4)c3)cc(-c3ccc(C4CC4)nc3)n2n1 [II-83, 5-(6-Cyclopropylpyridin-3-yl)-7-{1-[1-(oxetan-3-yl)piperidin-4-yl]-1H-pyrazol-4-yl}[1,2,4]triazolo[1,5-a]pyridin-2-amine]",IC50,[1],210 nM
same,IC50,[2],110 nM
"Nc1nc2cc(-c3cnn(C(c4ccc(C(F)(F)F)nc4)C4CCOCC4)c3)cc(-c3cn(CC(F)(F)F)c(=O)cn3)n2n1 (racemic) [II-194, 5-[2-Amino-7-(1-{tetrahydro-2H-pyran-4-yl[6-(trifluoromethyl)pyridin-3-yl]methyl}-1H-pyrazol-4-yl)[1,2,4]triazolo[1,5-a]pyridin-5-yl]-1-(2,2,2-trifluoroethyl)pyrazin-2(1H)-one]",IC50,[1],3.6 nM
same,IC50,[2],17 nM
"Nc1nc2c(-c3cnn(CC(F)(F)F)c3)cc(-c3cnn(C(c4ccc(C(F)(F)F)nc4)C4CCOCC4)c3)cn2n1 (single isomer, unassigned) [II-118, 6-(1-{Tetrahydro-2H-pyran-4-yl[6-(trifluoromethyl)pyridin-3-yl]methyl}-1H-pyrazol-4-yl)-8-[1-(2,2,2-trifluoroethyl)-1H-pyrazol-4-yl][1,2,4]triazolo[1,5-a]pyridin-2-amine]",IC50,[1],0.6 nM
same,IC50,[2],2.6 nM
Nc1nc2c(-c3ccc(=O)n(CC(F)F)c3)cc(-c3cnn(C(c4ccc(C(F)(F)F)nc4)C4CCOCC4)c3)cn2n1 (stereo not shown) [II-156],IC50,[1],1.1 nM
same,IC50,[2],3.3 nM
"CS(=O)(=O)c1cccc(-c2cc(-c3cnn(C(c4ccc(C(F)(F)F)nc4)C4CCOCC4)c3)cn3nc(N)nc23)c1 (racemic) [II-13, 8-[3-(Methylsulfonyl)phenyl]-6-(1-{tetrahydro-2H-pyran-4-yl[6-(trifluoromethyl)pyridin-3-yl]methyl}-1H-pyrazol-4-yl)[1,2,4]triazolo[1,5-a]pyridin-2-amine]",IC50,[1],0.7 nM
same,IC50,[2],1.8 nM
"CC[C@@H](c1ccccc1)n1cc(-c2cc(-c3cnn(CC(F)(F)F)c3)c3nc(N)nn3c2)cn1 [II-93, 6-{1-[(1S)-1-Phenylpropyl]-1H-pyrazol-4-yl}-8-[1-(2,2,2-trifluoroethyl)-1H-pyrazol-4-yl][1,2,4]triazolo[1,5-a]pyridin-2-amine]",IC50,[1],19 nM
same,IC50,[2],68 nM
Nc1nc2cc(-c3cnn(Cc4ccccc4)c3)cc(-c3cnn(CC4CC4(F)F)c3)n2n1 (stereo not shown) [II-124],IC50,[1],7.1 nM
same,IC50,[2],73 nM
"CCC(c1ccc(C(F)(F)F)nc1)n1cc(-c2cc(-c3ccc(C(F)(F)F)nc3)c3nc(N)nn3c2)cn1 (single isomer, unassigned) [II-38, 8-[6-(Trifluoromethyl)pyridin-3-yl]-6-(1-{1-[6-(trifluoromethyl)pyridin-3-yl]propyl}-1H-pyrazol-4-yl)[1,2,4]triazolo[1,5-a]pyridin-2-amine]",IC50,[1],56 nM
same,IC50,[2],120 nM
"CCC(c1ccc(C(F)(F)F)nc1)n1cc(-c2cc(-c3ccc(C(F)(F)F)nc3)c3nc(N)nn3c2)cn1 (single isomer, unassigned) [II-39, 8-[6-(Trifluoromethyl)pyridin-3-yl]-6-(1-{1-[6-(trifluoromethyl)pyridin-3-yl]propyl}-1H-pyrazol-4-yl)[1,2,4]triazolo[1,5-a]pyridin-2-amine]",IC50,[1],24 nM
same,IC50,[2],52 nM
"CCC(c1ccc(C(F)(F)F)nc1)n1cc(-c2cc(-c3cnn(CC(F)F)c3)c3nc(N)nn3c2)cn1 (single isomer, unassigned) [II-109, 8-[1-(2,2-Difluoroethyl)-1H-pyrazol-4-yl]-6-(1-{1-[6-(trifluoromethyl)pyridin-3-yl]propyl}-1H-pyrazol-4-yl)[1,2,4]triazolo[1,5-a]pyridin-2-amine]",IC50,[1],16 nM
same,IC50,[2],57 nM
